In assay [1] the test system is A. baumannii. Kind of assay: microbe, parasite or virus in culture. The settings on record: CAMHB; for MIC: MCPs read at 80% inhibition. The method, then:
MIC determinations were performed using the broth microdilution method and in line with CLSI guidelines M07 and M100 (refs. [37],[38]). Bacterial inocula were prepared by diluting a 0.5 McFarland suspension in CAMHB or lysogeny broth (LB) specifically for A. baylyi isolates. […] MIC values of all of the tested antibiotics were read as the lowest compound concentration inhibiting bacterial growth by naked eye or beyond which the OD600 ceased to decrease.

Another assay deals with A. baumannii ACC01073. Briefly: Neutropaenic mouse lung infection (pneumonia) model. The class given is in vivo. The settings on record: 120 mg/kg/day q12h. On the procedure:
An intramuscular inoculation of a bacterial suspension of approximately 10^6 CFU per thigh was used to induce the infection. Treatment started 2 h after infection. […] Thigh bacterial burden was determined after 24 h of treatment. In the pneumonia model, an intratracheal inoculation of approximately 10^7 CFU per lung was used to induce the infection. Treatment started 2 h after infection. […] Lung bacterial burden was determined after 24 h treatment. Standard of care antibiotic was tested at a single dose in both infection models. GraphPad Prism 8 was used for graphical presentation and to analyse data.

The subject of assay [2] is A. baumannii. Kind of assay: Neutropaenic mouse thigh infection model. The class given is in vivo. As to conditions: 24 h. The method, then:
An intramuscular inoculation of a bacterial suspension of approximately 10^6 CFU per thigh was used to induce the infection. Treatment started 2 h after infection. […] In the pneumonia model, an intratracheal inoculation of approximately 10^7 CFU per lung was used to induce the infection. Treatment started 2 h after infection. […] Standard of care antibiotic was tested at a single dose in both infection models. GraphPad Prism 8 was used for graphical presentation and to analyse data.

In brackets after ≈: the same amount, converted by molar mass.

`CN(C)c1cc(NC(=O)CNC(C)(C)C)c(O)c2c1C[C@H]1C[C@H]3[C@H](N(C)C)C(O)=C(C(N)=O)C(=O)[C@@]3(O)C(O)=C1C2=O` [tigecycline, reference compound] returned an MIC90 against A. baumannii [1] (Acinetobacter baumannii, 129 clinical isolates) of 8 µg/mL (≈ 13.7 µM). In addition, the MIC stood at 2 µg/mL (≈ 3.41 µM) in the assay with A. baumannii [1] (Acinetobacter baumannii, ACC00445); 0.5 µg/mL (≈ 0.854 µM) against A. baumannii [1] (Acinetobacter baumannii, ACC00535); 4 µg/mL (≈ 6.83 µM) against A. baumannii [1] (Acinetobacter baumannii, ACC01073); 2 µg/mL (≈ 3.41 µM) against A. baumannii [1] (Acinetobacter baumannii, ACC01077); 4 µg/mL (≈ 6.83 µM) in the assay with A. baumannii [1] (Acinetobacter baumannii, ACC01085 / AR0307); 0.5 µg/mL (≈ 0.854 µM) with A. baumannii [1] (Acinetobacter baumannii, ATCC17978, ATCC 17978). The MIC with A. baumannii [1] (Acinetobacter baumannii, ATCC19606, ATCC 19606) worked out at 1 µg/mL (≈ 1.71 µM); against A. baumannii [1] (Acinetobacter baumannii, ATCCBAA747, ATCC BAA-747) it was 0.25 µg/mL (≈ 0.427 µM); in the assay on A. baumannii [1] (Acinetobacter baumannii, ROB08701) it was 1 µg/mL (≈ 1.71 µM); against A. baumannii [1] (Acinetobacter baumannii, ROB08702), 4 µg/mL (≈ 6.83 µM); in the assay with A. baumannii [1] (Acinetobacter baumannii, ROB08703), 16 µg/mL (≈ 27.3 µM); in the assay with A. baumannii [1] (Acinetobacter baumannii, ROB08704), 0.5 µg/mL (≈ 0.854 µM). Besides, the MIC is 1 µg/mL (≈ 1.71 µM) against A. baumannii [1] (Acinetobacter baumannii, ROB08705); 8 µg/mL (≈ 13.7 µM) in the assay on A. baumannii [1] (Acinetobacter baumannii, ROB08706); 0.5 µg/mL (≈ 0.854 µM) with A. baumannii [1] (Acinetobacter baumannii, ROB08707); 1 µg/mL (≈ 1.71 µM) with A. baumannii [1] (Acinetobacter baumannii, ROB08708); 1 µg/mL (≈ 1.71 µM) against A. baumannii [1] (Acinetobacter baumannii, ROB08709); 1 µg/mL (≈ 1.71 µM) in the assay on A. baumannii [1] (Acinetobacter baumannii, ROB08710). In addition, the “ΔLog CFU/lungs vs A/0h” value with A. baumannii ACC01073 was determined as 0.70. Also, in the assay on A. baumannii ACC01073 (n = 6), the “CFU/lungs, average” value came to 4.23E+08. Further, the “Log CFU/lungs, average (bacterial load)” value in the assay on A. baumannii ACC01073 (n = 6) was 8.39.
With `C[C@@H](O)[C@H]1C(=O)N2C(C(=O)O)=C(S[C@@H]3CN[C@H](C(=O)N(C)C)C3)[C@H](C)[C@H]12` [MRP], the “log CFU/thigh, average” value with A. baumannii [2] (A. baumannii ACC00535 (APV00535), neutropenic mice, MERO 100 mg/kg, average of 8 samples) stood at 8.52 log CFU/thigh. For the same compound, in the assay with A. baumannii [2] (A. baumannii ACC00535 (APV00535), neutropenic mice, MERO 100 mg/kg, change of average log CFU/thigh vs start of therapy (2 h)), the “delta 2 hr; Δ log (vs. veh 2hrs)” value is 2.37.
On to colistin [reference compound], for which the MIC in the assay on A. baumannii [1] (ACC00445) was 0.25 µg/mL; against A. baumannii [1] (ACC00535) it was 0.5 µg/mL; in the assay with A. baumannii [1] (ACC01073), more than 16 µg/mL; in the assay with A. baumannii [1] (ACC01077), 16 µg/mL; with A. baumannii [1] (ACC01085 / AR0307), 4 µg/mL; in the assay on A. baumannii [1] (ATCC 17978) it was 0.25 µg/mL. Besides, the MIC against A. baumannii [1] (ATCC 19606) amounted to 0.5 µg/mL; against A. baumannii [1] (ATCC BAA-747), 0.5 µg/mL; in the assay on A. baumannii [1] (ROB08701), 1 µg/mL; with A. baumannii [1] (ROB08702), 2 µg/mL; in the assay on A. baumannii [1] (ROB08703), 0.5 µg/mL; against A. baumannii [1] (ROB08704), 2 µg/mL. Further, the MIC in the assay on A. baumannii [1] (ROB08705) amounted to 0.5 µg/mL; in the assay on A. baumannii [1] (ROB08706), 0.25 µg/mL; in the assay on A. baumannii [1] (ROB08707), 2 µg/mL; with A. baumannii [1] (ROB08708), 0.25 µg/mL; against A. baumannii [1] (ROB08709), 1 µg/mL; against A. baumannii [1] (ROB08710), 2 µg/mL. Also, the “Bacterial Load (average)” value with A. baumannii [2] (A. baumannii ACC01085, neutropenic mice, 60 mg/kg/day q8h, summary table, same as average Log CFU/Thigh) is listed as 3.39.
